What was measured:
[1] = background statement, test system not given; cited from earlier work
AA8 cells = experiment: Growth inhibition (cytotoxicity) in AA8 cells, 18 h drug exposure, methylene blue staining; type: cell-based, Chinese hamster; conditions: Cricetulus griseus, CHO-AA8, 18 h exposure then 78 h growth, 50% inhibition of growth relative to controls
Method: (§1) The compounds of Examples 1 and 3 show potent cytotoxicity to mammalian tumour cells, and are thus of interest as anticancer drugs. […] For these evaluations, AA8 and UV4 cells were maintained in exponential phase growth (doubling times 14 and 15 h respectively) using Alpha MEM containing fetal calf serum (10% v/v) without antibiotics, and were subcultured twice weekly by trypsinization. Bulk cultures were prepared for experiments by seeding cells in spinner flasks at 10^4 cells/mL in the above medium with addition of penicillin (100 IU/mL) and streptomycin (100 μg/mL). Cultures were initiated in 96-well microtiter trays to give 200 (AA8) or 300 (UV4) cells in 0.05 mL per well. After growth in a CO2 incubator for 24 h, drugs were added in culture medium, using serial two-fold dilutions to provide duplicate cultures at five different concentrations for each of eight drugs (plus eight controls) per tray. After 18 h drugs were removed by washing cultures three times with fresh medium, and the trays were incubated for a further 78 h. Cell density was then determined by staining with methylene blue as described [Finlay, G. J.; Baguley, B. C; Wilson, W. R. Anal. Biochem., 1984, 139, 272-277]. The IC50 was calculated as the drug concentration providing 50% inhibition of growth relative to the controls.

UV4 cells [2] = experiment: Growth inhibition (cytotoxicity) in UV4 cells, 18 h drug exposure, methylene blue staining; type: cell-based, Chinese hamster; conditions: Cricetulus griseus, 18 h exposure then 78 h growth (Example 9), read-out: IC50 against UV4 cells
Method: as §1, with “controls. […]” for “controls.”

UV4 cells [3] = experiment: Activation of prodrug by E. coli nitroreductase: IC50 in UV4 cells without and with purified enzyme and NADH; type: cell-based, Chinese hamster; conditions: for IC50: 18 hours; for fold activation by the enzyme: ratio of IC50 without to IC50 with E. coli nitroreductase, 1080 min
Method: as §1
The compound was incubated with UV4 cells for 18 hours in 96-well plates under aerobic conditions. The UV4 cell line is a mutant Chinese hamster ovary fibroblast lines derived from the wild-type AA8. It is a UV complementation group 1 mutant, with a defect in the incision step of excision repair [Thompson, L. H. et al Proc. Natl. Acad. Sci (USA), 1980, 78, 3734; Thompson, L. H.; Carrono, A. V. In Cellular responses to DNA Damage, UCLA Symposium on Molecular and Cellular Biology, New Series, Vol. 11 (Freidberg, E. C.; Bridges, B. R.; Eds), Alan R. Liss: New York, 1983: p 125], and is highly sensitive to agents which form bulky DNA monoadducts or crosslinks [Hoy, C.A . et al Cancer Res., 1985, 45, 1737-1747].
The experiment was repeated but in addition purified E. coli nitroreductase enzyme (1 μg/mL) and NADH (1 mM, as cofactor) was added during the entire time of the incubation. […] This represents a 26-fold activation by the enzyme.

human tumours = conditions: background statement; cited from earlier work

Row | Structure (SMILES) | IC50 (AA8 cells) [nM] | IC50 (UV4 cells [2]) [nM] | fold activation by the enzyme (UV4 cells [3]) [fold] | anticancer activity against a range of human tumours (human tumours) | further results
1 | COc1c(O)c2c(c3cc(C(=O)N4CCc5c4c(O)c(OC)c4[nH]c(C(=O)N6CC7CC78C6=CC(=O)c6[nH]cc(C)c68)cc54)[nH]c13)CCN2C(N)=O (stereo not shown) [CC-1065] |  |  |  |  | IC50 [1]: low pM range
2 | COc1cc2cc(C(=O)N3CC(CCl)c4ccc(N)cc43)[nH]c2c(OC)c1OC (stereo not shown) [Example 1, 6-Amino-3-(chloromethyl)-1-[(5',6',7'-trimethoxyindol-2'-yl)carbonyl]indoline] | 320 | 59 |  |  | 
3 | COc1cc2cc(C(=O)N3CC(CCl)c4ccc(NC(=O)OCc5ccc([N+](=O)[O-])cc5)cc43)[nH]c2c(OC)c1OC (stereo not shown) [Example 3, 3-(Chloromethyl)-6-[(4"-nitrobenzyloxycarbonyl)amino]-1-[(5',6',7'-trimethoxyindol-2'-yl)carbonyl]indoline] | 23000 | 19600 | 26 |  | IC50 (UV4 cells [3]; Cricetulus griseus, aerobic conditions, no enzyme (Example 10), read-out: IC50 in UV4 cells in the absence of E. coli nitroreductase): 11900 nM; IC50 (UV4 cells [3]; Cricetulus griseus, aerobic, purified E. coli nitroreductase 1 μg/mL and NADH 1 mM during the entire incubation, read-out: IC50 in UV4 cells in the presence of E. coli nitroreductase): 460 nM
4 | COC(=O)c1c(C)[nH]c2c(OC(=O)N3CCN(C)CC3)cc3c(c12)[C@H](CBr)CN3C(=O)c1cc2cc(OC)c(OC)c(OC)c2[nH]1 [KW-2189] |  |  |  | show anticancer activity against a range of human tumours | 
5 | CCN(CC)c1ccc2cc(C(=O)Nc3ccc4[nH]c(C(=O)N5C[C@@H](CCl)c6c5cc(OC(=O)Nc5ccccc5)c5[nH]cc(C)c65)cc4c3)oc2c1 [carzelesin] |  |  |  | show anticancer activity against a range of human tumours | 
6 | COc1cc2cc(C(=O)N3CC(CCl)c4ccc([N+](=O)[O-])cc43)[nH]c2c(OC)c1OC (stereo not shown) [example 1(h), 3-(Chloromethyl)-6-nitro-1-[(5',6',7'-trimethoxyindol-2'-yl)carbonyl]indoline] |  |  | 400 |  | IC50 (UV4 cells [3]; aerobic conditions, no enzyme (Example 10), read-out: IC50 in UV4 cells in the absence of E. coli nitroreductase): 2340 nM; IC50 (UV4 cells [3]; aerobic, purified E. coli nitroreductase 1 μg/mL and NADH 1 mM during the entire incubation, read-out: IC50 in UV4 cells in the presence of E. coli nitroreductase): 6 nM

— patent US5985909A, “Cyclopropylindoles and their seco precursors, and their use as prodrugs” (Cancer Research Campaign Technology Limited, priority 1995, dated 1999)
